Measurements taken from paper PMC8103899, “Allyl Isothiocyanate: A TAS2R38 Receptor-Dependent Immune Modulator at the Interface Between Personalized Medicine and Nutrition” (Frontiers in Immunology, 2021).

Experiments:
TAS2R38 receptor [1] = assay: Calcium flux assay in human PBMC (flow cytometry, Fluo-4 AM); conditions: PAV/AVI
TAS2R38 receptor [2] = target: T1, TAS2R38 receptor (Homo sapiens, UniProt P59533, A49P/I296V); assay: as above
T1 sequence (P59533 1-333 A49P/I296V): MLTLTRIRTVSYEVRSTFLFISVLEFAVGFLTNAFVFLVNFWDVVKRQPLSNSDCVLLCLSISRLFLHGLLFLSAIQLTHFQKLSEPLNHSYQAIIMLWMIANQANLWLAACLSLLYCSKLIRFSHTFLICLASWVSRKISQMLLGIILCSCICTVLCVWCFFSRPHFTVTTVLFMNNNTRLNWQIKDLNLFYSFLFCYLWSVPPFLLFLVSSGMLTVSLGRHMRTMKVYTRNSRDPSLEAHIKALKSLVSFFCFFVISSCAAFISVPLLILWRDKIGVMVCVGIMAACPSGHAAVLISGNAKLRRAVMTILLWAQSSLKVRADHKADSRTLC

TAS2R38 receptor [3] = target: TAS2R38 receptor (Homo sapiens, UniProt P59533, A262V); assay: as above; conditions: AVI/AVI, 100 µM AITC
Sequence of TAS2R38 receptor (Homo sapiens, UniProt P59533, A262V) (P59533 whole entry A262V): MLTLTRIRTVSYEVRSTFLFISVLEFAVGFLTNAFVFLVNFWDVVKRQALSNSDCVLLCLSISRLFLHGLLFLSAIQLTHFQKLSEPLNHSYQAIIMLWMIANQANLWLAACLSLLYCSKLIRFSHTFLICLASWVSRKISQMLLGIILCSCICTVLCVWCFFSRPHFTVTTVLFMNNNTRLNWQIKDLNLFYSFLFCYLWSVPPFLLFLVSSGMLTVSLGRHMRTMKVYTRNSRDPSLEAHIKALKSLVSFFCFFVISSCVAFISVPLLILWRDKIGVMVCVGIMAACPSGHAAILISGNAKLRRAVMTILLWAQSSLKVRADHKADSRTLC

p-ERK1/2, p-p38, p-Akt = assay: Immunoblotting of MAPK and AKT phosphorylation in PBMC; assay type: cell-based, human
Procedure: Proteins of interest were analyzed by immunoblotting as described before ([36]). Densitometric analysis was done to quantify the immunoblots using Quantity One software (Bio-Rad, Munich, Germany) and normalized against β-actin.
Figure 4 AITC mediates MAPK down-stream signaling in dependence of the TAS2R38 haplotype. (A, B) PBMC were treated with test compounds for the indicated time points and pellets were collected for protein expression analysis. Representative immunoblots are given. Densitometric analysis was done to quantify the immunoblots using Quantity One software (Bio-Rad, Munich, Germany) and normalized against β-actin, which was used as loading control. The graphs show phosphorylated ERK1/2, p-38 or Akt, protein levels relative to control as quantified by pixel densitometry. Bars are mean + SD; *p < 0.05, **p < 0.01 (n ≥ 2). Significance of difference was calculated relative to the corresponding solvent control determined by one-way ANOVA (SC, 0.01% DMSO).
(§1) Figure 5 In bacterial LPS stimulated PBMC, AITC triggers MAPK activation and TNF-α inhibition in dependence of the TAS2R38 genotype. PBMC were exposed to AITC or 0.01% DMSO (SC) together with 100 pg/mL LPS. (A) Representative immunoblots are given. Densitometric analysis was done to quantify the immunoblots using Quantity One software (Bio-Rad, Munich, Germany) and normalized against β-actin, which was used as loading control. (B, C) Cytokine secretion at 3 and 24 h was analyzed using ELISA kits. (D) Time kinetic of TNF-α mRNA expression. Results are means + SD and given as fold of the solvent control. Results were calculated relative to the corresponding solvent control (SC, 0.01% DMSO). Significance of difference was determined compared to the respective SC by one-way ANOVA, *p < 0.05, **p < 0.01.

IL-1β = IL-1β release of LPS stimulated PBMC (ELISA); assay type: cell-based, human; conditions: LPS activated PBMC
Procedure: PBMC (1x10^6/mL) cultured in RPMI 1640 medium supplemented with 10% heat-inactivated fetal calf serum, 2 mM L-glutamine, 100 U/ml penicillin/streptomycin were stimulated with 0.5 ng/ml CD3/CD28 MAbs and exposed to the test compounds. After 24 h, supernatants were collected and stored at -80°C until analysis using the human MACSplex cytokine 12-kit (Miltenyi Biotec GmbH, Bergisch Gladbach, Germany) according to manufacturer’s protocol to quantify cytokine secretion. Supernatants were also used for photometric quantification by the human TNF-alpha or IL-1β ELISA Ready-Set-Go kit from eBIoscience (Frankfurt, Germany) according to the manufacturer’s instructions.
as §1, with “(D) Time kinetic of TNF-α mRNA expression. Results are means + SD and given as fold of the solvent control.” left out

C=CCN=C=S [AITC, allyl isothiocyanate]
calcium influx (TAS2R38 receptor [1]; lymphocytes, 100 µM AITC): 21%
calcium flux (statistically significant) (TAS2R38 receptor [1]; monocytes, 10 µM AITC): 18%
calcium influx (TAS2R38 receptor [2]; PAV/PAV cells, 0.01 µM AITC (increase between 0.01 to 1 µM)): 28%
calcium influx (TAS2R38 receptor [2]; PAV/PAV cells, 1 µM AITC (increase between 0.01 to 1 µM)): 35%
calcium influx (TAS2R38 receptor [2]; PAV/PAV cells, 10 µM AITC (increase between 10-100 µM)): 45%
calcium influx (TAS2R38 receptor [2]; PAV/PAV cells, 100 µM AITC (increase between 10-100 µM)): 72%
calcium influx (TAS2R38 receptor [2]; lymphocytes, PAV/PAV, 1 µM AITC): 25%
calcium flux (statistically significant) (TAS2R38 receptor [2]; monocytes, PAV/PAV, 0.01 µM AITC): 22%
threshold concentration (TAS2R38 receptor [2]; monocytes, calcium flux): 10 nM
calcium influx (TAS2R38 receptor [3]; lymphocytes): 24%
calcium flux (statistically significant) (TAS2R38 receptor [3]; monocytes): 20%
p-ERK, p-p38 and p-Akt phosphorylation (p-ERK1/2, p-p38, p-Akt; 5 min, 100 pg/mL LPS and AITC, PAV/PAV subjects): upregulation
p-ERK1/2 and p-p38 phosphorylation (p-ERK1/2, p-p38, p-Akt; PBMC, PAV/PAV group, in contrast to AVI/AVI): quick activation (5 min. AITC exposure), followed by dephosphorylation
p-Akt phosphorylation (p-ERK1/2, p-p38, p-Akt; PBMC, in dependence of the TAS2R38 genotype): same activation/inactivation pattern
release of IL-1β (IL-1β): suppressed in both AVI/AVI and PAV/PAV groups
